Laboratory results as given in patent US20090117654A1, “MEDIUM FOR CULTURING HEM[…] AND A METHOD OF CULTURING HEM[…]” (SAMSUNG ELECTRONICS CO., LTD., priority 2006, published 2009).

How the values were obtained:
bone marrow cells [1] = assay: Proliferation of bone marrow cells in serum-free basal medium; type: cell-based, human; details: for proliferation of bone marrow cells, times more than the control medium: 100 μg/ml BAPN, two week culture
From the text: Effects of β-aminopropionitrile (hereinafter referred to as BAPN) on proliferation of bone marrow cells in serum-free medium were inspected. The bone marrow cells used in Example 1 mostly consists of hematopoietic cells and is a population of cells including hematopoietic cells.
First, proliferations of bone marrow cells were inspected in a serum-free medium in the presence and absence of fibronectin and collagen IV which are extracellular matrix that is known to influence proliferation of bone marrow cells.
(§1) A bone marrow monocyte (Catalog number ARM07F) was purchased from Stem Cell Technology Co., Ltd. The bone marrow mononuclear cells was obtained from a normal person, and CD34+ cells accounted for 1.6% of the cells. The bone marrow cells were maintained in a maintenance medium. The maintenance medium was a IMDM including 50 ng/ml of SCF, 50 ng/ml of IL-6, 50 ng/ml of TPO, 50 ng/ml of FL, 10 μg/ml of recombinant human insulin, 100 μg/ml of bovine serum albumin (BSA), 200 μg/ml of human transferrin, 0.1 mM of 2-mercaptoethanol, and 2 mM of L-glutamine.
(§2) 100 μl of the basal medium, and 100 μl of the basal medium with 100 μg/ml of BAPN were placed in each well of a 24 well plate, bone marrow cells were inoculated onto the media in the concentration of 1×10^5 cell/ml, and cultured for two weeks. The medium was exchanged every week. After the two week culture, adhesive cells were detached from the surface through trypsin treatment and the final cell concentration including floating cells was measured using a hemacytometer. In addition, the bottom of the 24 well plate was coated with collagen IV or fibronectin, and the effects of collagen IV or fibronectin were measured at the same time. The coating materials were dissolved to the concentration of from 5 to 50 μg/ml, the mixture was poured into the 24 wells to the amount of from 1 to 10 μg/cm^2 and reacted for one hour at room temperature.

bone marrow cells [2] = assay: Proliferation of bone marrow cells in serum-free basal medium including IL-3; type: cell-based, human; details: for proliferation of bone marrow cells, times more than the control medium including IL-3: 2 week culture
Protocol: Effects of BAPN on proliferation of bone marrow cells in serum-free basal medium including IL-3 which induces divisions of hematopoietic stem cells were inspected.
as §1, with “monocyte” for “mononuclear cells”, “total monocytes.” for “cells.”, “maintaining” for “maintenance”
as §2, with “the basal medium with 20 μg/ml of IL-3, and 100” for “the basal medium, and 100”, “medium with 20 μg/ml of IL-3 and 100 μg/ml” for “medium with 100 μg/ml”, “After the 2 week culture,” for “After the two week culture,”, “same time. In the coating, coating materials” for “same time. The coating materials”

N#CCCN [BAPN, β-aminopropionitrile]
proliferation of bone marrow cells, times more than the control medium (bone marrow cells [1]; collagen-coated 24 well plate): 5.1 times
proliferation of bone marrow cells, times more than the control medium (bone marrow cells [1]; fibronectin-coated 24 well plate): 12.1 times
proliferation of bone marrow cells, times more than the control medium (bone marrow cells [1]; uncoated 24 well plate): 5.4 times
effect on proliferation of bone marrow cells (bone marrow cells [1]; whether or not the culture vessel was coated with extracellular matrix): promoted the proliferation of bone marrow cells
proliferation of bone marrow cells, times more than the control medium including IL-3 (bone marrow cells [2]; 100 μg/ml BAPN with IL-3, collagen-coated 24 well plate): 2.6 times
proliferation of bone marrow cells, times more than the control medium including IL-3 (bone marrow cells [2]; 100 μg/ml BAPN with IL-3, fibronectin-coated 24 well plate): 2.0 times
proliferation of bone marrow cells, times more than the control medium including IL-3 (bone marrow cells [2]; 100 μg/ml BAPN with IL-3, uncoated 24 well plate): 3.1 times
effect on proliferation of bone marrow cells (bone marrow cells [2]; with or without extracellular matrix coating, with or without cytokine (IL-3)): promoted the proliferation of bone marrow cells
